biological target: T1, Recombinant human CBP containing the bromodomain (CBP-BD (1043-1159)) (Homo sapiens, UniProt Q92793); test: CBP Alphascreen binding assay; conditions: read-out: CREBBP (CBP) IC50
T1 construct: Recombinant human CBP bromodomain (CBP-BD (1043-1159)); made in house; host or cells: E. coli BL21-CodonPlus (DE3), modified pET vector
Experimental: CBP Alphascreen Binding Assay
Binding of compounds of Formula (I) with CBP was assessed using Alphascreen™ binding assay. The inhibition of the interaction between the CBP bromodomain and its acetylated target protein was measured quantitatively using recombinant CBP, an acetylated Histone 3 peptide and AlphaScreen™ technology. In absence of inhibition of the CBP protein bound to AlphaScreen™ nickel chelate acceptor beads can interact with the acetylated Histone 3 peptide which was immobilized by the AlphaScreen™ Streptavidin coated beads. This interaction brings donor and acceptor beads in proximity. The close proximity allows the singlet oxygen produced by laser excitation of the donor beads to reach the acceptor beads and generate a luminescence signal. CBP inhibitors result in a decrease in the proximity signal through an inhibition of the CBP—acetylated peptide interaction.
Recombinant human CBP containing the bromodomain (CBP-BD (1043-1159)) was prepared and purified as described in protein expression and purification session. The peptide was human Histone H345-64K56Ac-Biotin (Anaspec CA, USA).
Protocol for CBP assay: All components are prepared in buffer composed of 50 mM HEPES pH 7.5, 50 mM NaCl, 0.01% BSA, 0.01% Triton X-100, 2 mM DTT. Test compounds and DMSO vehicle are diluted 1:50 in buffer and a 4 μL volume was transferred to an Alphaplate. 5.5 μL of CBP protein and 5.5 μL of peptide are added to wells containing 4 μL of various concentrations of test compounds of Formula (I) or DMSO vehicle in an Alphaplate (PerkinElmer GA, USA) and incubated for 1 hour at room temperature. 5 μL donor and acceptor bead mixture was then added with final concentrations of 7.5 μg/ml. 60 minutes after bead addition, Alpha signal was read on the Envision spectrometer (λEx 680 nm, λEm 520-620 nm). Final concentrations of bromodomain proteins and peptide are as shown below.
All data were normalized to the mean of 16 high and 16 low control wells on each plate. A four parameter curve fit of the following formula was then applied: Y=A+((B−A)/(1+((C/x)^D))) Where ‘A’ is the minimum, ‘B’ is the maximum, ‘C’ is the IC50 and ‘D’ is the Hill slope. Protein Expression and Purification
Recombinant human CBP bromodomain (CBP-BD (1043-1159)) was expressed in E. coli cells (in a modified pET vector) with an N-terminal six-His tag and purified using a combination of both IMAC (Ni-affinity) and size exclusion chromatography steps.
Recombinant CBP protein was expressed using the E. coli strain BL21-CodonPlus (DE3) (Agilent Technologies CA, USA). Cells were grown in Terrific Broth (TB) media to an OD600 of 0.92 at 37° C. at which temperature was reduced to 20° C., protein was induced with 1.0 mM isopropyl-β-D-thiogalactopyranoside (“IPTG”) for 20 hours and harvested by centrifugation at 8500×g for 20 minutes. Cells were re-suspended in 0.1M K2PO4 pH 8.0, 250 mM NaCl, 10% Glycerol, 0.75% NP-40, 25 mM Imidazole, with 0.2 mg/ml Lysozyme, 0.2 mM phenylmethanesulfonyl fluoride (“PMSF”), […] (“BME”), 25 μg/ml DNase I, incubated on ice for 30 minutes and lysed with a cell disruptor (MicroFluidics MA, USA). The lysate was clarified by centrifugation at 20,000×g for 1 hour. The protein was captured with Ni-NTA resin (Life Technologies, USA). Contaminating proteins were washed off with 40 mM HEPES pH 7.5, 500 mM NaCl, 5% Glycerol, 5 mM Imidazole, and 5 mM BME. Following 3× wash steps, protein was eluted using 400 mM Imidazole in 40 mM HEPES pH 7.5, 400 mM NaCl, and 5 mM BME. The protein was further purified using a size exclusion column (26/600 Superdex 200, GE Biosciences NJ, USA) in 40 mM HEPES pH 7.5, 250 mM NaCl, 5 mM BME. The protein was aliquoted and flash-frozen in liquid Nitrogen.

T1 sequence (Q92793 1081-1197): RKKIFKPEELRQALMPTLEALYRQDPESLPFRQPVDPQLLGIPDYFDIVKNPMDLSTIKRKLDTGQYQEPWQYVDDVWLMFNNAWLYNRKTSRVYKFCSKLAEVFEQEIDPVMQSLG

Row | Compound | IC50
1 | Cc1ccc(S(=O)(=O)n2cc(-c3ccc(C(=O)O)cc3)c3cc(-c4c(C)noc4C)cnc32)cc1 [P-0006, 4-(5-(3,5-dimethylisoxazol-4-yl)-1-tosyl-1H-pyrrolo[2,3-b]pyridin-3-yl)benzoic acid] | 1 to 8 µM
2 | Cc1noc(C)c1-c1cnc2c(c1)c(-c1ccc(C(=O)O)cc1)cn2C(c1ccccn1)C1CC1 (stereo not shown) [P-0007, 4-(1-(cyclopropyl(pyridin-2-yl)methyl)-5-(3,5-dimethylisoxazol-4-yl)-1H-pyrrolo[2,3-b]pyridin-3-yl)benzoic acid] | 0.0001 to 1 µM
3 | Cc1noc(C)c1-c1cnc2c(c1)c(-c1ccc(C(=O)O)cc1)cn2C(c1ccccn1)C1CCC1 (stereo not shown) [P-0008, 4-(1-(cyclobutyl(pyridin-2-yl)methyl)-5-(3,5-dimethylisoxazol-4-yl)-1H-pyrrolo[2,3-b]pyridin-3-yl)benzoic acid] | 0.0001 to 1 µM
4 | Cc1noc(C)c1-c1cnc2c(CC3CCC3)cn(-c3ccc(C(=O)O)cn3)c2c1 [P-0009, 6-(3-(cyclobutylmethyl)-6-(3,5-dimethylisoxazol-4-yl)-1H-pyrrolo[3,2-b]pyridin-1-yl)nicotinic acid] | 0.0001 to 1 µM
5 | Cc1noc(C)c1-c1cnc2c(CC3CC3)cn(-c3ccc(C(=O)O)cn3)c2c1 [P-0010, 6-(3-(cyclopropylmethyl)-6-(3,5-dimethylisoxazol-4-yl)-1H-pyrrolo[3,2-b]pyridin-1-yl)nicotinic acid] | 0.0001 to 1 µM
6 | Cc1noc(C)c1-c1cnc2c(Cc3ccccn3)cn(-c3ccc(C(=O)O)cn3)c2c1 [P-0011, 6-(6-(3,5-dimethylisoxazol-4-yl)-3-(pyridin-2-ylmethyl)-1H-pyrrolo[3,2-b]pyridin-1-yl)nicotinic acid] | 1 to 8 µM
7 | Cc1noc(C)c1-c1cnc2c(c1)c(-c1ccc(C(=O)O)cc1)cn2C(c1ccccn1)c1ccccn1 [P-0012, 4-(1-(di(pyridin-2-yl)methyl)-5-(3,5-dimethylisoxazol-4-yl)-1H-pyrrolo[2,3-b]pyridin-3-yl)benzoic acid] | 0.0001 to 1 µM
8 | Cc1noc(C)c1-c1cnc2c(c1)c(-c1ccc(C(=O)O)cc1F)cn2[C@@H](C)c1ccccn1 [P-0097, (S)-4-(5-(3,5-dimethylisoxazol-4-yl)-1-(1-(pyridin-2-yl)ethyl)-1H-pyrrolo[2,3-b]pyridin-3-yl)-3-fluorobenzoic acid] | 0.0001 to 1 µM
9 | COc1ccc(C(=O)O)cc1-n1cc(CC2CCC2)c2ncc(-c3c(C)noc3C)cc21 [P-0098, 3-(3-(cyclobutylmethyl)-6-(3,5-dimethylisoxazol-4-yl)-1H-pyrrolo[3,2-b]pyridin-1-yl)-4-methoxybenzoic acid] | 0.0001 to 1 µM
10 | Cc1noc(C)c1-c1cnc2c(C(=O)c3cccc(OC(F)F)c3)cn(-c3ccnc(C(=O)O)c3)c2c1 [P-0099, 4-(3-(3-(difluoromethoxy)benzoyl)-6-(3,5-dimethylisoxazol-4-yl)-1H-pyrrolo[3,2-b]pyridin-1-yl)picolinic acid] | 0.0001 to 1 µM
11 | Cc1noc(C)c1-c1cnc2c(Cc3cccc(OC(F)F)c3)cn(-c3ccnc(C(=O)O)c3)c2c1 [P-0100, 4-(3-(3-(difluoromethoxy)benzyl)-6-(3,5-dimethylisoxazol-4-yl)-1H-pyrrolo[3,2-b]pyridin-1-yl)picolinic acid] | 0.0001 to 1 µM
12 | Cc1noc(C)c1-c1cnc2c(c1)c(-c1cccc(C(=O)O)c1)cn2CC1CC(F)(F)C1 [P-0101, 3-(1-((3,3-difluorocyclobutyl)methyl)-5-(3,5-dimethylisoxazol-4-yl)-1H-pyrrolo[2,3-b]pyridin-3-yl)benzoic acid] | 0.0001 to 1 µM
13 | Cc1noc(C)c1-c1cnc2c(c1)c(-c1cccc(C(=O)O)c1)cn2CC1(C)COC1 [P-0102, 3-(5-(3,5-dimethylisoxazol-4-yl)-1-((3-methyloxetan-3-yl)methyl)-1H-pyrrolo[2,3-b]pyridin-3-yl)benzoic acid] | 1 to 8 µM
14 | COc1cc(C(=O)O)cc(OC)c1-c1cn([C@@H](C)c2ccccn2)c2ncc(-c3c(C)noc3C)cc12 [P-0103, (S)-4-(5-(3,5-dimethylisoxazol-4-yl)-1-(1-(pyridin-2-yl)ethyl)-1H-pyrrolo[2,3-b]pyridin-3-yl)-3,5-dimethoxybenzoic acid] | 0.0001 to 1 µM
15 | Cc1noc(C)c1-c1cnc2c(CC3CCC3)cn(-c3ccc(C#N)c(C(=O)O)c3)c2c1 [P-0104, 2-cyano-5-(3-(cyclobutylmethyl)-6-(3,5-dimethylisoxazol-4-yl)-1H-pyrrolo[3,2-b]pyridin-1-yl)benzoic acid] | 0.0001 to 1 µM
16 | Cc1noc(C)c1-c1cnc2c(CC3CCC3)cn(-c3ccc(C(=O)O)c(C#N)c3)c2c1 [P-0105, 2-cyano-4-(3-(cyclobutylmethyl)-6-(3,5-dimethylisoxazol-4-yl)-1H-pyrrolo[3,2-b]pyridin-1-yl)benzoic acid] | 0.0001 to 1 µM
17 | Cc1noc(C)c1-c1cnc2c(c1)c(-c1cncc(C(=O)O)n1)cn2[C@@H](C)c1ccccn1 [P-0106, (S)-6-(5-(3,5-dimethylisoxazol-4-yl)-1-(1-(pyridin-2-yl)ethyl)-1H-pyrrolo[2,3-b]pyridin-3-yl)pyrazine-2-carboxylic acid] | 1 to 8 µM
18 | Cc1noc(C)c1-c1cnc2c(c1)c(-c1nccc(C(=O)O)n1)cn2[C@@H](C)c1ccccn1 [P-0107, (S)-2-(5-(3,5-dimethylisoxazol-4-yl)-1-(1-(pyridin-2-yl)ethyl)-1H-pyrrolo[2,3-b]pyridin-3-yl)pyrimidine-4-carboxylic acid] | 1 to 8 µM
19 | CCOc1cc(C(=O)O)cc(F)c1-n1cc(CC2CCC2)c2ncc(-c3c(C)noc3C)cc21 [P-0108, 4-(3-(cyclobutylmethyl)-6-(3,5-dimethylisoxazol-4-yl)-1H-pyrrolo[3,2-b]pyridin-1-yl)-3-ethoxy-5-fluorobenzoic acid] | 0.0001 to 1 µM
20 | CCOc1cc(C(=O)O)cc(OCC)c1-n1cc(CC2CCC2)c2ncc(-c3c(C)noc3C)cc21 [P-0109, 4-(3-(cyclobutylmethyl)-6-(3,5-dimethylisoxazol-4-yl)-1H-pyrrolo[3,2-b]pyridin-1-yl)-3,5-diethoxybenzoic acid] | 0.0001 to 1 µM
21 | Cc1noc(C)c1-c1cnc2c(CC3CCC3)cn(-c3ccc(C(=O)O)c4ccoc34)c2c1 [P-0110, 7-(3-(cyclobutylmethyl)-6-(3,5-dimethylisoxazol-4-yl)-1H-pyrrolo[3,2-b]pyridin-1-yl)benzofuran-4-carboxylic acid] | 0.0001 to 1 µM
22 | Cc1noc(C)c1-c1cnc2c(CC3CCC3)cn(-c3c(OC(C)C)cc(C(=O)O)cc3OC(C)C)c2c1 [P-0111, 4-(3-(cyclobutylmethyl)-6-(3,5-dimethylisoxazol-4-yl)-1H-pyrrolo[3,2-b]pyridin-1-yl)-3,5-diisopropoxybenzoic acid] | 0.0001 to 1 µM
23 | Cc1noc(C)c1-c1cnc2c(c1)c(-c1ccc(C(=O)O)cc1OC(C)C)cn2[C@@H](C)c1ccccn1 [P-0112, (S)-4-(5-(3,5-dimethylisoxazol-4-yl)-1-(1-(pyridin-2-yl)ethyl)-1H-pyrrolo[2,3-b]pyridin-3-yl)-3-isopropoxybenzoic acid] | 0.0001 to 1 µM
24 | CCCOc1cc(C(=O)O)ccc1-c1cn([C@@H](C)c2ccccn2)c2ncc(-c3c(C)noc3C)cc12 [P-0113, (S)-4-(5-(3,5-dimethylisoxazol-4-yl)-1-(1-(pyridin-2-yl)ethyl)-1H-pyrrolo[2,3-b]pyridin-3-yl)-3-propoxybenzoic acid] | 0.0001 to 1 µM
25 | CCOc1cc(C(=O)O)ccc1-c1cn([C@@H](C)c2ccccn2)c2ncc(-c3c(C)noc3C)cc12 [P-0114, (S)-4-(5-(3,5-dimethylisoxazol-4-yl)-1-(1-(pyridin-2-yl)ethyl)-1H-pyrrolo[2,3-b]pyridin-3-yl)-3-ethoxybenzoic acid] | 0.0001 to 1 µM

Reference: patent publication US11446287B2, “Compounds and methods for EP300 or CBP modulation and indications therefor” (Opna Immuno-Oncology SA, priority 2019, dated 2022)
